PubChem BioAssay (NCI)
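Exposure lasted 48 hours, with cells grown in 96-well plates and compounds tested at five concentrations. TGI: total growth inhibition.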 Where a SMILES comes first, the peptide text is derived from it. The star is where a group is joined. Cbz = O=C(OCc1ccccc1)*

Assays:
Assay in all cases: NCI anticancer screen, dose series, 48 h
786-0 renal = test system: 786-0 renal
EKVX NSCLC = test system: EKVX NSCLC
HOP-62 NSCLC = test system: HOP-62 NSCLC
K-562 leukemia = test system: K-562 leukemia
OVCAR-4 ovarian = test system: OVCAR-4 ovarian
SF-295 CNS = test system: SF-295 CNS
SK-OV-3 ovarian = test system: SK-OV-3 ovarian
UO-31 renal = test system: UO-31 renal
PC-3 prostate = test system: PC-3 prostate
SK-MEL-28 melanoma = test system: SK-MEL-28 melanoma

Compound	TGI (786-0 renal) [µM]	TGI (EKVX NSCLC) [µM]	TGI (HOP-62 NSCLC) [µM]	TGI (K-562 leukemia) [µM]	TGI (OVCAR-4 ovarian) [µM]	TGI (SF-295 CNS) [µM]	TGI (SK-OV-3 ovarian) [µM]	TGI (UO-31 renal) [µM]	TGI (PC-3 prostate) [µM]	TGI (SK-MEL-28 melanoma) [µM]
CCCCc1ccc(Nc2nc(N)c3ncn(COCCO)c3n2)cc1	65.4	> 100	45.1	> 100	> 100	41.2	26.9	> 100		
O=CC1C[C@@H](N2C(=O)O[C@@H](c3ccccc3)[C@H]2c2ccccc2)[C@@H]1COCc1ccccc1 (stereo not given in full)	31.2	43.2	44.5	> 100	> 100	39.9		29.3	43.1	40.4
O=Cc1ccc(-c2cccc([N+](=O)[O-])c2)s1	> 100	> 100	> 100	> 100	> 100	> 100	> 100	> 100	> 100	> 100
O=C(NCCN1CCCC1)c1cn2c(ccc3sc4ccccc4c(=O)c32)n1	2.78	34.8	25.8		26.3	27.1	30	26.4	27.4	33.8
COc1cc(C2(O)c3ccccc3C3=NCCN32)cc(OC)c1OC (stereo not given)	> 100		> 100	> 100	> 100	> 100	> 100	> 100	> 100	> 100
CCSC(=O)/C=C1\CN(C(=O)OC(C)(C)C)C1C(=O)OC(C)(C)C (stereo not given)	6.23	26	28.9	4.63	7.44	25	28.2	10	18.1	3.67
O/N=C1\CCc2cc3c(cc21)CCC3	> 100	> 100	> 100	> 100	> 100	> 100	> 100	> 100	> 100	> 100
O=C(NCC(C(=O)OCc1ccccc1)C(=O)OCc1ccccc1)OCc1ccccc1	> 100	> 100	> 100	> 100		> 100	> 100	> 100	> 100	> 100
Nc1ncc(CN2CCOCC2)c(-c2ccccc2O)n1	> 100	> 100	> 100	> 100	> 100	> 100	> 100	> 100	> 100	> 100
N#C/C(=C\c1ccc(Br)cc1)c1nc(-c2cc3ccccc3oc2=O)cs1	> 50	> 50	20.1	> 50	> 50	> 50	> 50	> 50	> 50	> 50
CN(C)/C=C/c1nnnn1-c1ccc(I)cc1	> 100	51.3	> 100	44.5	66	> 100	53.3	39.1	46.2	65.7
CN1CCN(CCCCN2c3ccccc3Sc3ccc(N=[N+]=[N-])cc32)CC1	22.6	29.4	33.8	4.07	23.6	27.9		21.8	15.9	3.73
O=S1c2ccccc2SCSc2ccccc21	> 100		> 100	75.8	> 100	> 100	> 100	> 100	> 100	
CCOC(=O)C(CC(=O)OC)NC(=O)C(CC(=O)OC)NC(=O)C(CC(=O)OC)NC(=O)C(CC(=O)OC)NC(=O)OCc1ccccc1 (stereo not given) (Cbz-D(OMe)D(OMe)D(OMe)D(OMe)-OEt; configuration not given here)	> 100	> 100	> 100	> 100				> 100	> 100	> 100
O=C1c2ccccc2-c2c1c(-c1ccccc1)c1n2C2(C(=O)c3ccccc3C2=O)C2C(=O)N(c3ccccc3)C(=O)C12 (stereo not given)	68.9	> 100	63.7		> 100	> 100	> 100	79.3	81.6	> 100
CC(=O)N1N=C(c2c(O)ccc3ccccc23)CC1c1ccc(Cl)cc1 (stereo not given)	> 100		37	43.3	> 100	54.2	> 100	93.4	68.9	74
O=C1CCc2cc3c(cc21)CC1(Cc2cc4c(cc2C1)CCCC4)C3		> 100	> 100	> 100	> 100	> 100	> 100	> 100	> 100	> 100
O=C(/C=C(\O)c1ccc(Cl)cc1)C(=O)NN=C(c1ccccc1)c1ccccc1	> 100	> 100	> 100	> 100	> 100	> 100	> 100	90.4	> 100	
N/C(COc1ccc(Cl)cc1)=N\NC(=O)c1ccncc1	> 100	> 100	> 100	> 100	> 100	> 100	> 100		> 100	> 100
Cc1cc(C)c(NS(=O)c2cccc(Cl)c2)c(C)c1 (stereo not given)	> 100	> 100	> 100	> 100		> 100		> 100	> 100	> 100
O=C(CC(C(=O)c1cccs1)c1ccsc1)c1ccco1 (stereo not given)	> 100	> 100	> 100			> 100	> 100	59		> 100
COc1cc(C2c3cc4c(cc3OC(NCc3ccccc3)C2C)OCO4)cc(OC)c1OC (stereo not given)	44.1	> 100	> 64	> 37.8	> 100	0.673	> 35.3	26.4		> 100
[C-]#[N+]C1(C(=O)OCC)CC1	> 100	> 100	> 100	> 100	> 100	> 100			> 100	> 100
